# Columns and labels:
# [1] = tested on: Rattus norvegicus; assay: Retention time in Scopolamine induced avoidance test (performed in rat) for antagonistic activity after peroral administration of 5 mg/kg; format: functional, organism-based; design: dose 5 mg/kg
# [2] = tested on: Rattus norvegicus; assay: Retention time in Scopolamine induced avoidance test (performed in rat) for antagonistic activity after peroral administration of 1.25 mg/kg; format: functional, organism-based; design: dose 1.25 mg/kg
# [3] = tested on: Rattus norvegicus; assay: Acquisition time in Scopolamine induced avoidance test (performed in rat) for antagonistic activity after p.o. administration of 0.31 mg/kg; format: functional; conditions: route oral
# [4] = tested on: Rattus norvegicus; assay: Acquisition time in Scopolamine induced avoidance test (performed in rat) for antagonistic activity after peroral administration of 20 mg/kg; format: functional; conditions: route oral
# [5] = tested on: Rattus norvegicus; assay: Acquisition time in Scopolamine induced avoidance test (performed in rat) for antagonistic activity after peroral administration of 80 mg/kg; format: functional; conditions: route oral
# [6] = tested on: Mus musculus; assay: Tested for locomotor activity after oral administration of […] for 120 min; format: functional
# [7] = tested on: Mus musculus; assay: Tested for locomotor activity after oral administration of 10 mg/kg for 120 min; format: functional
# [8] = tested on: Rattus norvegicus; assay: Retention time in Scopolamine induced avoidance test (performed in rat) for antagonistic activity after p.o. administration of 0.31 mg/kg; format: functional, organism-based; design: dose 0.31 mg/kg
# [9] = tested on: Rattus norvegicus; assay: Retention time in Scopolamine induced avoidance test (performed in rat) for antagonistic activity after peroral administration of 80 mg/kg; format: functional, organism-based; design: dose 80 mg/kg
# [10] = tested on: Mus musculus; assay: Tested for locomotor activity after oral administration of 40 mg/kg for 120 min; format: functional
# [11] = tested on: Rattus norvegicus; assay: Acquisition time in Scopolamine induced avoidance test (performed in rat) for antagonistic activity after peroral administration of 1.25 mg/kg; format: functional; conditions: route oral
# [12] = tested on: Rattus norvegicus; assay: Acquisition time in Scopolamine induced avoidance test (performed in rat) for antagonistic activity after p.o. administration of 5 mg/kg; format: functional; conditions: route oral
# [13] = tested on: Mus musculus; assay: Retention time in (R)-PIA) induced avoidance test (performed in mice) for antagonistic activity after peroral administration of 20 mg/kg (n=15) (P<0.05); format: functional, organism-based; design: dose 20 mg/kg
# [14] = tested on: Rattus norvegicus; assay: Acquisition time in Scopolamine induced avoidance test (performed in rat) for antagonistic activity after peroral administration of 1.25 mg/kg (n=18); format: functional; conditions: route oral
# [15] = tested on: Rattus norvegicus; assay: Retention time in Scopolamine induced avoidance test (performed in rat) for antagonistic activity after peroral administration of 0.31 mg/kg (n=18) (P<0.005); format: functional, organism-based; design: dose 0.31 mg/kg
# [16] = tested on: Mus musculus; assay: Retention time in (R)-PIA) induced avoidance test (performed in mice) for antagonistic activity after peroral administration of 1.25 mg/kg (n=15) (P<0.005); format: functional, organism-based; design: dose 1.25 mg/kg
# [17] = tested on: Mus musculus; assay: Acquisition time in (R)-PIA) induced avoidance test (performed in mice) for antagonistic activity after peroral administration of 0.31 mg/kg (n=15); format: functional; conditions: route oral
# [18] = tested on: Rattus norvegicus; assay: Retention time in Scopolamine induced avoidance test (performed in rat) for antagonistic activity after peroral administration of 5 mg/kg (n=18) (P<0.05); format: functional, organism-based; design: dose 5 mg/kg
# [19] = tested on: Mus musculus; assay: Acquisition time in (R)-PIA) induced avoidance test (performed in mice) for antagonistic activity after peroral administration of 1.25 mg/kg (n=15); format: functional; conditions: route oral
# [20] = tested on: Mus musculus; assay: Retention time in (R)-PIA) induced avoidance test (performed in mice) for antagonistic activity after peroral administration of 0.08 mg/kg (n=15) (P<0.005); format: functional, organism-based; design: dose 0.08 mg/kg
# [21] = tested on: Rattus norvegicus; assay: Acquisition time in Scopolamine induced avoidance test (performed in rat) for antagonistic activity after peroral administration of 5 mg/kg (n=18); format: functional; conditions: route oral
# [22] = tested on: Mus musculus; assay: Acquisition time in (R)-PIA) induced avoidance test (performed in mice) for antagonistic activity after peroral administration of 0.08 mg/kg (n=15); format: functional; conditions: route oral
# [23] = tested on: Rattus norvegicus; assay: Retention time in Scopolamine induced avoidance test (performed in rat) for antagonistic activity after peroral administration of 0.02 mg/kg (n=18) (P<0.05); format: functional, organism-based; design: dose 0.02 mg/kg
# [24] = tested on: Rattus norvegicus; assay: Acquisition time in Scopolamine induced avoidance test (performed in rat) for antagonistic activity after peroral administration of 0.02 mg/kg (n=18); format: functional; conditions: route oral
# [25] = tested on: Rattus norvegicus; assay: Retention time in Scopolamine induced avoidance test (performed in […]) for antagonistic activity after peroral administration of 1.25 mg/kg (n=18) (P<0.05); format: functional, organism-based; design: dose 1.25 mg/kg
# [26] = tested on: Rattus norvegicus; assay: Acquisition time in Scopolamine induced avoidance test (performed in rat) for antagonistic activity after peroral administration of 0.31 mg/kg (n=18); format: functional; conditions: route oral
# [27] = tested on: Mus musculus; assay: Retention time in (R)-PIA) induced avoidance test (performed in mice) for antagonistic activity after peroral administration of 0.31 mg/kg (n=15) (P<0.01); format: functional, organism-based; design: dose 0.31 mg/kg
# [28] = tested on: Rattus norvegicus; assay: Retention time in Scopolamine induced avoidance test (performed in rat) for antagonistic activity after peroral administration of 0.08 mg/kg (n=18) (P<0.05); format: functional, organism-based; design: dose 0.08 mg/kg
# [29] = tested on: Mus musculus; assay: Acquisition time in (R)-PIA) induced avoidance test (performed in mice) for antagonistic activity after peroral administration of 5 mg/kg (n=15); format: functional; conditions: route oral
# [30] = tested on: Rattus norvegicus; assay: Acquisition time in Scopolamine induced avoidance test (performed in rat) for antagonistic activity after peroral administration of 0.08 mg/kg (n=18); format: functional; conditions: route oral
compound,measurement,setting,value
Cn1c(=O)c2c(ncn2C)n(C)c1=O [CAFFEINE],Retention time,[1],12.5 s
same,Retention time,[2],11.9 s
same,Acquisition time,[3],18.3 s
same,Acquisition time,[4],33.8 s
same,Acquisition time,[5],29.6 s
same,Locomotor activity,[6],6413 Counts
same,Locomotor activity,[7],9386 Counts
same,Retention time,[8],14.9 s
same,Retention time,[9],7.6 s
same,Locomotor activity,[10],9693 Counts
same,Acquisition time,[11],14.6 s
same,Acquisition time,[12],11.5 s
CCCn1c(=O)c2nc(C3CCC(=O)C3)[nH]c2n(CCC)c1=O (configuration not stated),Retention time,[13],319 s
same,Acquisition time,[14],11.4 s
same,Retention time,[15],163 s
same,Retention time,[16],339 s
same,Acquisition time,[17],22 s
same,Retention time,[18],75.9 s
same,Acquisition time,[19],15.1 s
same,Retention time,[20],322 s
same,Acquisition time,[21],9.8 s
same,Locomotor activity,[6],6134 Counts
same,Locomotor activity,[7],8204 Counts
same,Acquisition time,[22],20.8 s
same,Retention time,[23],169 s
same,Acquisition time,[24],16.4 s
same,Retention time,[25],85.9 s
same,Acquisition time,[26],13.2 s
same,Retention time,[27],234 s
same,Retention time,[28],126 s
same,Acquisition time,[29],15.1 s
same,Acquisition time,[30],12.8 s
